US9403758B2, “Antibacterial agents” (Achaogen, Inc., priority 2012, dated 2016)
Values after ≈ are worked out from the molar mass of the structure shown.

Key:
Type in all cases: cell-based
[1] = test system: Escherichia coli ATCC25922; assay: MIC broth microdilution, Escherichia coli ATCC25922 (AECO); settings: 35° C., 18-24 hr, read-out: Minimum Inhibitory Concentrations (MICs) AECO
Description: (§1) Bacterial isolates were cultivated from −70° C. frozen stocks by overnight passages at 35° C. in ambient air on Mueller-Hinton agar (Beckton Dickinson, Franklin Lakes, N.J.). Clinical isolates tested were obtained from various geographically diverse hospitals in the US and abroad (Focus Diagnostics, Herndon, Va. and JMI, North Liberty, Iowa). Quality control strains were from the American Type Culture Collection (ATCC; Rockville, Md.).
(§2) Minimum Inhibitory Concentrations (MICs) were determined by the broth microdilution method in accordance with the Clinical and Laboratory Standards Institute (CLSI) guidelines. In brief, organism suspensions were adjusted to a 0.5 McFarland standard to yield a final inoculum between 3×10^5 and 7×10^5 colony-forming units (CFU)/mL. Drug dilutions and inocula were made in sterile, cation adjusted Mueller-Hinton Broth (Beckton Dickinson). An inoculum volume of 100 μL was added to wells containing 100 μL of broth with 2-fold serial dilutions of drug. All inoculated microdilution trays were incubated in ambient air at 35° C. for 18-24 hr. Following incubation, the lowest concentration of the drug that prevented visible growth (OD600 nm<0.05) was recorded as the MIC. Performance of the assay was monitored by the use of laboratory quality-control strains and levofloxacin, a compound with a defined MIC spectrum, in accordance with CLSI guidelines. Typically, compounds of the present invention have MIC values of 0.03-32 μg/mL.

[2] = test system: Pseudomonas aeruginosa ATCC27853; assay: MIC broth microdilution, Pseudomonas aeruginosa ATCC27853 (APAE); settings: 35° C., 18-24 hr, read-out: Minimum Inhibitory Concentrations (MICs) APAE
Description: as §1, §2

[3] = test system: Klebsiella pneumonia ATCC43816; assay: MIC broth microdilution, Klebsiella pneumonia ATCC43816 (AKPN); settings: Klebsiella pneumoniae, 35° C., 18-24 hr, read-out: Minimum Inhibitory Concentrations (MICs) AKPN
Description: as §1, §2

MIC [1]	MIC [2]	MIC [3]	Compound
≤ 1 µg/mL	≤ 1 µg/mL	≤ 1 µg/mL	CSC(C)(C)[C@H](NC(=O)c1ccc(C#CC#C[C@H]2C[C@@H]2CO)cc1)C(=O)NO (stereo in doubt) [Compound 3, N—((R)-1-(hydroxyamino)-3-methyl-3-(methylthio)-1-oxobutan-2-yl)-4-(((trans)-2-(hydroxymethyl)cyclopropyl)buta-1,3-diynyl)benzamide]
≤ 1 µg/mL	≤ 1 µg/mL	8 to 16 µg/mL (≈ 19.2 to 38.4 µM)	C[S+]([O-])C(C)(C)[C@H](NC(=O)c1ccc(C#CC#C[C@H]2C[C@@H]2CO)cc1)C(=O)NO (stereo in doubt) [Compound 4, N-((2R)-1-(hydroxyamino)-3-methyl-3-(methylsulfinyl)-1-oxobutan-2-yl)-4-(((trans)-2-(hydroxymethyl)cyclopropyl)buta-1,3-diynyl)benzamide]
1 to 8 µg/mL (≈ 2.53 to 20.2 µM)	≤ 1 µg/mL	8 to 16 µg/mL (≈ 20.2 to 40.5 µM)	CC(C)(N)[C@H](NC(=O)c1ccc2cc(C#CC3C[C@@H]3CO)ccc2c1)C(=O)NO (stereo partly drawn) [Compound 6, N—((S)-3-amino-1-(hydroxyamino)-3-methyl-1-oxobutan-2-yl)-6-(((trans)-2-(hydroxymethyl)cyclopropyl)ethynyl)-2-naphthamide]
≤ 1 µg/mL	≤ 1 µg/mL	≤ 1 µg/mL	CC(C)([C@H](NC(=O)c1ccc(C#CC#C[C@H]2C[C@@H]2CO)cc1)C(=O)NO)S(C)(=O)=O (stereo in doubt) [Compound 5, N—((R)-1-(hydroxyamino)-3-methyl-3-(methylsulfonyl)-1-oxobutan-2-yl)-4-(((trans)-2-(hydroxymethyl)cyclopropyl)buta-1,3-diynyl)benzamide]
≤ 1 µg/mL	≤ 1 µg/mL	≤ 1 µg/mL	CNC(=O)C(NC(=O)c1ccc(C#CC#C[C@@H]2C[C@H]2CO)cc1)C(=O)NO (stereo partly drawn) [Compound 8]
≤ 1 µg/mL	8 to 16 µg/mL (≈ 24.1 to 48.1 µM)	8 to 16 µg/mL (≈ 24.1 to 48.1 µM)	O=C(NO)c1cc(-c2ccc(C#CC#C[C@@H]3C[C@H]3CO)cc2)ccn1 (relative stereo) [Compound 2, N-hydroxy-4-(4-(((trans)-2-(hydroxymethyl)cyclopropyl)buta-1,3-diynyl)phenyl)picolinamide]
≤ 1 µg/mL	≤ 1 µg/mL	1 to 8 µg/mL (≈ 2.57 to 20.5 µM)	CC(CCc1ccc(C#CC#C[C@H]2C[C@@H]2CO)cc1)(C(=O)NO)S(C)(=O)=O (relative stereo) [Compound 9, N-hydroxy-4-(4-(((trans)-2-(hydroxymethyl)cyclopropyl)buta-1,3-diynyl)phenyl)-2-methyl-2-(methylsulfonyl)butanamide]
1 to 8 µg/mL (≈ 2.49 to 19.9 µM)	1 to 8 µg/mL (≈ 2.49 to 19.9 µM)	8 to 16 µg/mL (≈ 19.9 to 39.9 µM)	CC(C)(N)[C@H](NC(=O)c1cc2ccc(C#CC3C[C@H]3CO)cc2s1)C(=O)NO (stereo partly drawn) [Compound 7, N—((S)-3-amino-1-(hydroxyamino)-3-methyl-1-oxobutan-2-yl)-6-(((trans)-2-(hydroxymethyl)cyclopropyl)ethynyl)benzo[b]thiophene-2-carboxamide]
≤ 1 µg/mL	8 to 16 µg/mL (≈ 20.9 to 41.7 µM)	≤ 1 µg/mL	O=C(NO)c1cc(-c2ccc(C#CC#C[C@@H]3C[C@H]3CO)cc2)nc2ccncc12 (relative stereo) [Compound 1, N-hydroxy-2-(4-(((trans)-2-(hydroxymethyl)cyclopropyl)buta-1,3-diynyl)phenyl)-1,6-naphthyridine-4-carboxamide]
